Test results published in ChEMBL document CHEMBL5230124, “Advances of CCR5 antagonists: From small molecules to macromolecules” (Eur J Med Chem, 2020).
Converted amounts (≈) assume the structure as drawn.

Legend:
[1] = Half life in human plasma; format: ADME, cell-free
[2] = Antifertility activity against human Spermatozoa assessed as decrease in sperm motility for 120 mins by hematocytometer analysis; format: functional, cell-based
[3] = AUC in Wistar rat at 10 mg/kg, IM administered as H3-lableled compound by scintillation counting method; format: ADME, organism-based; set-up: dose 10 mg/kg, route im; conditions: in vivo
[4] = Terminal half life in Wistar rat at 10 mg/kg, IM administered as H3-lableled compound by scintillation counting method; format: ADME, organism-based; conditions: in vivo

## CCCCOCCOc1ccc(-c2ccc3c(c2)/C=C(/C(=O)Nc2ccc([S@@+]([O-])Cc4cncn4CCC)cc2)CCCN3CC(C)C)cc1 [CENICRIVIROC]
[1]
  half-life: 30 h

## CCN(Cc1ccccc1)C(=O)C1CCN(CCCN(C(=O)C2CCN(C(C)=O)CC2)c2ccc(C)c(Cl)c2)CC1
[2]
  EC50: 1500 mg/L (≈ 2580 µM)

## Cc1nnc(C(C)C)n1[C@H]1C[C@H]2CC[C@@H](C1)N2CC[C@H](NC(=O)C1CCC(F)(F)CC1)c1ccccc1 [MARAVIROC]
[3]
  AUC: 0.56717 µg·h/mL
[4]
  beta t1/2: 53.23 h
